Laboratory results taken from publication PMC10882719 (Frontiers in Neuroscience, 2024).
Like-named read-outs stand apart in the source and are kept apart here.

Key:
Format in all cases: cell-based
168 GPCRs [1] = molecular target: T1, 168 GPCRs (Homo sapiens, UniProt P41146); conditions: OPRL1
T1 construct: host or cells: PathHunter cell lines

168 GPCRs [2] = molecular target: T2, 168 GPCRs (Homo sapiens, UniProt P32247)
T2 construct: host or cells: PathHunter cell lines
T2 sequence (P32247 1-399): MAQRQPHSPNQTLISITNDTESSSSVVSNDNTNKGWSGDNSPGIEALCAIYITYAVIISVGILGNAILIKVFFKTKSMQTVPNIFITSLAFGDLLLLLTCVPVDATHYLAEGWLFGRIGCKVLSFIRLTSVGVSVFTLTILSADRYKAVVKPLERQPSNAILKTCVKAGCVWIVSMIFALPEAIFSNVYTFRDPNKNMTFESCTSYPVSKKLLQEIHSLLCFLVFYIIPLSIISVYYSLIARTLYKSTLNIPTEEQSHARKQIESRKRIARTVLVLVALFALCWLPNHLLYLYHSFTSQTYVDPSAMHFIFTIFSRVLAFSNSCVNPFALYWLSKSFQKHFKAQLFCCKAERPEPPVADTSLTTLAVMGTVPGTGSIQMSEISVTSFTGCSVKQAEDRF

168 GPCRs [3] = molecular target: T3, 168 GPCRs (Homo sapiens, UniProt P51684)
T3 construct: host or cells: PathHunter cell lines
T3 sequence (P51684 1-374): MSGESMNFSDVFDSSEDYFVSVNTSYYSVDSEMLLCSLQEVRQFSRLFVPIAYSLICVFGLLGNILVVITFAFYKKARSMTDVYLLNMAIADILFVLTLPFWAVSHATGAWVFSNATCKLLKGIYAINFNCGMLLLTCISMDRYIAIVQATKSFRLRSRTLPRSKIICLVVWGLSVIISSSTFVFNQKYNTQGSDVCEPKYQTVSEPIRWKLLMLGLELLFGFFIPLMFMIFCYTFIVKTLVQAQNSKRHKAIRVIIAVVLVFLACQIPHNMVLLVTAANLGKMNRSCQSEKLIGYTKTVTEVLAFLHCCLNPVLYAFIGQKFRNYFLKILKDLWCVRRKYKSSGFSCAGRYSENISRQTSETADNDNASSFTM

168 GPCRs [4] = molecular target: T4, 168 GPCRs (Homo sapiens, UniProt P07550)
T4 construct: host or cells: PathHunter cell lines

168 GPCRs [5] = molecular target: T5, 168 GPCRs (Homo sapiens, UniProt Q5NUL3)
T5 construct: host or cells: PathHunter cell lines
T5 sequence (Q5NUL3 1-361): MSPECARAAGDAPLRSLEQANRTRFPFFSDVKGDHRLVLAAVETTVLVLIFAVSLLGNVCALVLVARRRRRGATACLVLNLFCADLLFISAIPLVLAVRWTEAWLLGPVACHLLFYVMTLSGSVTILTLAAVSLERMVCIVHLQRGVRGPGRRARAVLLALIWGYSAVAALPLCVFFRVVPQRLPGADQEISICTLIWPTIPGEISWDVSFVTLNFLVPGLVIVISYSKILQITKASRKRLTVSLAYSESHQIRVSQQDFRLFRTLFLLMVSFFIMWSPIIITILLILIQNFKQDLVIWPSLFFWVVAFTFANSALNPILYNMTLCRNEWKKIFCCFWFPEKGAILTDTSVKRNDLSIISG

168 GPCRs [6] = molecular target: T6, 168 GPCRs (Homo sapiens, UniProt Q9NSD7); conditions: RXFP3
T6 construct: host or cells: PathHunter cell lines
T6 sequence (Q9NSD7 1-469): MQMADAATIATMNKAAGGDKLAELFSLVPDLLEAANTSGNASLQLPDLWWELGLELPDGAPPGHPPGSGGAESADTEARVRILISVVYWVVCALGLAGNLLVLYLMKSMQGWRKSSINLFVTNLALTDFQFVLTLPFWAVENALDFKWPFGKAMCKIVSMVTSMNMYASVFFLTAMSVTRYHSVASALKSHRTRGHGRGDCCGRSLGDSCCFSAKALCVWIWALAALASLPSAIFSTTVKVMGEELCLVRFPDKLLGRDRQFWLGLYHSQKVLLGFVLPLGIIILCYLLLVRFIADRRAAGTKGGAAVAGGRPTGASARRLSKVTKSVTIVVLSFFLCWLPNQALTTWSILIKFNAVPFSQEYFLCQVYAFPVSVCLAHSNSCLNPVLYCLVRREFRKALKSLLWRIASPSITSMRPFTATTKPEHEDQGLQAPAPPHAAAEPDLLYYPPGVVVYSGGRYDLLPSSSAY

T1 sequence (P41146 whole entry): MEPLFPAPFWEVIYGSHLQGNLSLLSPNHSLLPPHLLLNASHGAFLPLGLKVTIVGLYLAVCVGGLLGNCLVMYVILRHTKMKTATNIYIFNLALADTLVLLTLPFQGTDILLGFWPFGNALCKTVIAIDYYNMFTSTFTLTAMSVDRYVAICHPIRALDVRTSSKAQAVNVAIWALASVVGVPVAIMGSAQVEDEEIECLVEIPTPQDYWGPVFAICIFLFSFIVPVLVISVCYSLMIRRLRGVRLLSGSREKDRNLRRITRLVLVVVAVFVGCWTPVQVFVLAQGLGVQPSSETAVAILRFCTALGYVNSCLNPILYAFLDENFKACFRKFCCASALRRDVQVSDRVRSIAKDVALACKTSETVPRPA
T4 sequence (P07550 whole entry): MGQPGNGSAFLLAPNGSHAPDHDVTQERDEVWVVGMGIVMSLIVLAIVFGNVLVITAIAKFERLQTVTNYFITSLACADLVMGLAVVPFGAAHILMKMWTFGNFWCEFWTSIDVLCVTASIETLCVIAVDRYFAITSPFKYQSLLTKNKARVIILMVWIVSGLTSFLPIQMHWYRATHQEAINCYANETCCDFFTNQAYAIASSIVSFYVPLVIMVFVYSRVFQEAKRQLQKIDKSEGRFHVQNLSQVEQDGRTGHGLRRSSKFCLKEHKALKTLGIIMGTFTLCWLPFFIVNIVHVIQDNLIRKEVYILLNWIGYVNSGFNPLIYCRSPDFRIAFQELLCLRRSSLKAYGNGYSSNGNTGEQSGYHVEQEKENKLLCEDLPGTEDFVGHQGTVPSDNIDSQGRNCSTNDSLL

Compound: CNC(C)Cc1ccc2c(c1)OCO2 (stereo not drawn) [MDMA, 3,4-Methylenedioxy methamphetamine, reference compound]
- % Agonist Activity (168 GPCRs [1]; Conc 1 uM): 0.5%
- % Antagonist Activity (168 GPCRs [1]; Conc 1 uM): -6.7%
- % Agonist Activity (168 GPCRs [1]; Conc 10 uM): -0.4%
- % Antagonist Activity (168 GPCRs [1]; Conc 10 uM): -3.2%
- % Agonist Activity (168 GPCRs [2]; BRS3, 1 uM): 2.6%
- % Antagonist Activity (168 GPCRs [2]; BRS3, 1 uM): 7.9%
- % Agonist Activity (168 GPCRs [2]; BRS3, 10 uM): -3%
- % Antagonist Activity (168 GPCRs [2]; BRS3, 10 uM): 3.8%
- % Agonist Activity (168 GPCRs [3]; CCR6, 1 uM): 1.4%
- % Antagonist Activity (168 GPCRs [3]; CCR6, 1 uM): 0%
- % Agonist Activity (168 GPCRs [3]; CCR6, 10 uM): 0.7%
- % Antagonist Activity (168 GPCRs [3]; CCR6, 10 uM): 0.3%
- % Agonist Activity (168 GPCRs [4]; ADRB2, 1 uM): 2%
- % Antagonist Activity (168 GPCRs [4]; ADRB2, 1 uM): 31.9%
- % Agonist Activity (168 GPCRs [4]; ADRB2, 10 uM): 1.5%
- % Antagonist Activity (168 GPCRs [4]; ADRB2, 10 uM): 45.7%
- % Agonist Activity (168 GPCRs [5]; GPR120, 1 uM): -3.7%
- % Antagonist Activity (168 GPCRs [5]; GPR120, 1 uM): 11.3%
- % Agonist Activity (168 GPCRs [5]; GPR120, 10 uM): -4.4%
- % Antagonist Activity (168 GPCRs [5]; GPR120, 10 uM): 8.8%
- % Agonist Activity (168 GPCRs [6]; Conc 1 uM): -5.2%
- % Antagonist Activity (168 GPCRs [6]; Conc 1 uM): 15.3%
- % Agonist Activity (168 GPCRs [6]; Conc 10 uM): -0.7%
- % Antagonist Activity (168 GPCRs [6]; Conc 10 uM): 19.1%

Compound: CNC(C)C(=O)c1ccc2c(c1)OCO2 (stereo not drawn) [methylone]
- % Agonist Activity (168 GPCRs [1]; Conc 1 uM): -1.6%
- % Antagonist Activity (168 GPCRs [1]; Conc 1 uM): 17.1%
- % Agonist Activity (168 GPCRs [1]; Conc 10 uM): -2.3%
- % Antagonist Activity (168 GPCRs [1]; Conc 10 uM): 13.2%
- % Agonist Activity (168 GPCRs [2]; BRS3, 1 uM): 4.5%
- % Antagonist Activity (168 GPCRs [2]; BRS3, 1 uM): 18.3%
- % Agonist Activity (168 GPCRs [2]; BRS3, 10 uM): -4.6%
- % Antagonist Activity (168 GPCRs [2]; BRS3, 10 uM): 10.1%
- % Agonist Activity (168 GPCRs [3]; CCR6, 1 uM): -2.9%
- % Antagonist Activity (168 GPCRs [3]; CCR6, 1 uM): 9.3%
- % Agonist Activity (168 GPCRs [3]; CCR6, 10 uM): -3.3%
- % Antagonist Activity (168 GPCRs [3]; CCR6, 10 uM): -1.6%
- % Agonist Activity (168 GPCRs [4]; ADRB2, 1 uM): 0%
- % Antagonist Activity (168 GPCRs [4]; ADRB2, 1 uM): 18.1%
- % Agonist Activity (168 GPCRs [4]; ADRB2, 10 uM): -0.2%
- % Antagonist Activity (168 GPCRs [4]; ADRB2, 10 uM): 20.4%
- % Agonist Activity (168 GPCRs [5]; GPR120, 1 uM): -5.1%
- % Antagonist Activity (168 GPCRs [5]; GPR120, 1 uM): 46.5%
- % Agonist Activity (168 GPCRs [5]; GPR120, 10 uM): -5.8%
- % Antagonist Activity (168 GPCRs [5]; GPR120, 10 uM): 40.3%
- % Agonist Activity (168 GPCRs [6]; Conc 1 uM): -7.6%
- % Antagonist Activity (168 GPCRs [6]; Conc 1 uM): 23.1%
- % Agonist Activity (168 GPCRs [6]; Conc 10 uM): -8.7%
- % Antagonist Activity (168 GPCRs [6]; Conc 10 uM): 32.6%
